Here are results for 4 molecules from US7226931B2, “(R/S) rifamycin derivatives, their preparations and pharmaceutical compositions” (priority 2004, dated 2007).

Experiment [1] is described as follows: MIC by microbroth dilution, panel of rifampin-susceptible Gram-positive strains. The conditions noted are these: range over the rifampin-susceptible Gram-positive strains. Format: cell-based. On the procedure: (§1) Representative compounds of the formula (I) were assayed for antimicrobial activity as follows: Minimum Inhibitory Concentrations (MICs) were determined by the microbroth dilution method as per NCCLS guidelines (National Committee for Clinical Laboratory Standards, 2000). All growth incubations were conducted at 37° C. Bacterial cultures were tested in the following bacteriological media: S. aureus, S. epidermidis in Cation-Adjusted Mueller-Hinton Broth, S. pneumoniae in THY Broth supplemented with 1 mg/mL catalase under 5% CO2 atmosphere, S. pyogenes in THY Broth, E. faecalis in BHI Broth, H. influenzae in BHI Broth supplemented with 0.75 μL of 1 mg/mL NAD and 150 μL of 1 mg/ml hematin per 5 mL.
(§2) S. aureus ATCC 29213, S. epidermidis ATCC 12228, S. pneumoniae ATCC6303, S. pyogenes ATCC 19615 and E. faecalis ATCC 29212 are rifampin-susceptible Gram-positive strains. […] H. influenzae ATCC 10211 is Gram-negative bacteria.
In general terms: Broth dilution looks for growth in wells or tubes with falling amounts of substance.

Experiment [2] relates to S. epidermidis ATCC 12228. The experiment can be described thus: MIC by microbroth dilution, S. epidermidis ATCC 12228. The format is cell-based, Staphylococcus epidermidis. On the procedure:
as §1, §2

The next experiment deals with H. influenzae ATCC 10211. The experiment can be described thus: MIC by microbroth dilution, H. influenzae ATCC 10211. Format: cell-based, Haemophilus influenzae. Here is the method:
as §1, §2

Experiment [3] relates to Staphylococcus aureus MT1222 gyrA^A116E grlB^S80F. The experiment can be described thus: MIC by microbroth dilution, quinolone-resistant S. aureus MT1222. The format is cell-based. On the procedure:
as §1, §2

The subject of a further experiment is S. aureus ATCC 29213. The experiment can be described thus: MIC by microbroth dilution, S. aureus ATCC 29213 (rifS). Format: cell-based, Staphylococcus aureus. Here is the method:
as §1, §2

The test system of experiment [4] is S. aureus ATCC 29213 RpoB^D417Y. The experiment is described as follows: microbe, parasite or virus in culture. The conditions noted are these: Staphylococcus aureus. Format: cell-based. Here is the method: as §1, §2
The test system of another experiment is S. pyogenes ATCC 19615. The experiment can be described thus: MIC by microbroth dilution, S. pyogenes ATCC 19615. The format is cell-based, Streptococcus pyogenes. On the procedure:
as §1, §2

The next experiment deals with S. pneumoniae ATCC6303. The experiment can be described thus: MIC by microbroth dilution, S. pneumoniae ATCC6303. The format is cell-based, Streptococcus pneumoniae. Here is the method: as §1, §2
In experiment [5] the test system is pathogenic microorganisms. The experiment is described as follows: Antibacterial activity, influence of linker chirality (R versus S). Format: cell-based. As to conditions: (R)- versus (S)-absolute configuration at the linker carbon. On the procedure:
as §1, with “As already mentioned, the compounds of formula I or their salts have antibacterial properties and activities against rifampin and quinolone resistant strains. […] Representative” for “Representative”
The antibacterial activities of the compounds of the formula (I) are influenced by the chirality of the linker.

The mark [6] stands for this setting: Staphylococcus epidermidis ATCC12228, rifS, read-out: Antimicrobial activity (MIC).
[7] abbreviates: Haemophilus influenzae ATCC10211, rifS, read-out: Antimicrobial activity (MIC).
Setting [8] is: read-out: Antimicrobial activity (MIC).
Setting [9] is: Staphylococcus aureus ATCC29213, rifS, read-out: Antimicrobial activity (MIC).
The mark [10] stands for this setting: ATCC29213, read-out: Antimicrobial activity (MIC).
Where [11] appears, read: Streptococcus pyogenes ATCC19615, rifS, read-out: Antimicrobial activity (MIC).
Setting [12] is: Streptococcus pneumoniae ATCC6303, rifS, read-out: Antimicrobial activity (MIC).
Setting [13] is: Staphylococcus epidermidis, ATCC12228, read-out: Antimicrobial activity (MIC).
[14] abbreviates: Staphylococcus aureus, ATCC29213, read-out: Antimicrobial activity (MIC).
Where [15] appears, read: Streptococcus pyogenes, ATCC19615, read-out: Antimicrobial activity (MIC).
Setting [16] is: Streptococcus pneumoniae, ATCC6303, read-out: Antimicrobial activity (MIC).

Converted amounts (≈) assume the structure as drawn. Where two headings read alike, the source gives them in different places.

As to `CO[C@H]1/C=C/O[C@@]2(C)Oc3c(C)c(O)c4c(O)c(c(/C=N/N5CCN(C)CC5)c(O)c4c3C2=O)NC(=O)/C(C)=C\C=C\[C@H](C)[C@H](O)[C@@H](C)[C@@H](O)[C@@H](C)[C@H](OC(C)=O)[C@@H]1C` [rifampin], the MIC in [1] was 0.008 to 1 µg/mL (≈ 0.00972 to 1.22 µM); in experiment [2] (setting [6]), 0.03 µg/mL (≈ 0.0365 µM); in the experiment with H. influenzae ATCC 10211 (setting [7]) it was 0.24 µg/mL (≈ 0.292 µM); in the experiment with H. influenzae ATCC 10211 (Haemophilus influenzae, ATCC10211, Gram-negative bacteria (H. influenzae ATCC 10211, 'these organisms'), read-out: MICs), 0.24 to 16 µg/mL (≈ 0.292 to 19.4 µM); in experiment [3] (setting [8]), 0.004 µg/mL (≈ 0.00486 µM); in the experiment with S. aureus ATCC 29213 (setting [9]) it was 0.008 µg/mL (≈ 0.00972 µM). Also, the MIC in experiment [4] (ATCC29213) is greater than 256 µg/mL; in [4] (setting [10]) it was greater than 256 µg/mL; in the experiment on S. pyogenes ATCC 19615 (setting [11]), 0.013 µg/mL (≈ 0.0158 µM); in the experiment with S. pneumoniae ATCC6303 (setting [12]) it was 0.061 µg/mL (≈ 0.0741 µM).
For the molecule `O=C(O)c1cn(C2CC2)c2cc(N3CCNCC3)c(F)cc2c1=O` [ciprofloxacin], the MIC in experiment [2] (setting [6]) was 0.125 µg/mL (≈ 0.377 µM); in the experiment with H. influenzae ATCC 10211 (setting [7]), 0.008 µg/mL (≈ 0.0241 µM); in experiment [3] it was 8 µg/mL (≈ 24.1 µM); in [3] (setting [8]) it was 8 µg/mL (≈ 24.1 µM); in the experiment with S. aureus ATCC 29213 (setting [9]), 0.25 µg/mL (≈ 0.754 µM); in [4] (setting [10]) it was 0.25 µg/mL (≈ 0.754 µM). The MIC worked out at 0.5 µg/mL (≈ 1.51 µM) in the experiment on S. pyogenes ATCC 19615 (setting [11]) and 1 µg/mL (≈ 3.02 µM) in the experiment with S. pneumoniae ATCC6303 (setting [12]).
`CO[C@H]1/C=C/O[C@@]2(C)Oc3c(C)c(O)c4c(O)c(c(/C=N/N5CCC(N(C)C6([C@H]7CCN(c8c(F)cn9c(=O)c(C(=O)O)cc(C%10CC%10)c9c8C)C7)CC6)CC5)c(O)c4c3C2=O)NC(=O)/C(C)=C\C=C\[C@H](C)[C@H](O)[C@@H](C)[C@@H](O)[C@@H](C)[C@H](OC(C)=O)[C@@H]1C` [Example 2, (S)-3-[(4-{1-[1-(3-Carboxy-1-cyclopropyl-7-fluoro-9-methyl-4-oxo-4H-quinolizine-8-yl)-pyrrolidin-3-yl-cyclopropyl]-methylamino}-piperidin-1-ylimino)-methylenyl]-rifamycin SV]: the MIC in experiment [2] (setting [13]) is 0.12 µg/mL (≈ 0.0996 µM); in the experiment on H. influenzae ATCC 10211 (setting [7]), 0.5 µg/mL (≈ 0.415 µM); in experiment [3] (setting [8]) it was 0.24 µg/mL (≈ 0.199 µM); in the experiment with S. aureus ATCC 29213 (setting [14]) it was 0.24 µg/mL (≈ 0.199 µM); in experiment [4] (setting [10]), 8 µg/mL (≈ 6.64 µM); in the experiment with S. pyogenes ATCC 19615 (setting [15]), 0.03 µg/mL (≈ 0.0249 µM). Further, the MIC in the experiment on S. pneumoniae ATCC6303 (setting [16]) was 0.015 µg/mL (≈ 0.0124 µM).
With `CO[C@H]1/C=C/O[C@@]2(C)Oc3c(C)c(O)c4c(O)c(c(/C=N/N5CCC(N(C)C6([C@@H]7CCN(c8c(F)cn9c(=O)c(C(=O)O)cc(C%10CC%10)c9c8C)C7)CC6)CC5)c(O)c4c3C2=O)NC(=O)/C(C)=C\C=C\[C@H](C)[C@H](O)[C@@H](C)[C@@H](O)[C@@H](C)[C@H](OC(C)=O)[C@@H]1C` [Example 1, (R)-3-[(4-{1-[1-(3-Carboxy-1-cyclopropyl-7-fluoro-9-methyl-4-oxo-4H-quinolizine-8-yl)-pyrrolidin-3-yl-cyclopropyl]-methylamino}-piperidin-1-ylimino)-methylenyl]-rifamycin SV], the MIC was 0.06 µg/mL (≈ 0.0498 µM) in [2] (setting [13]); 0.5 µg/mL (≈ 0.415 µM) in the experiment on H. influenzae ATCC 10211 (setting [7]); 0.06 µg/mL (≈ 0.0498 µM) in experiment [3] (setting [8]); 0.06 µg/mL (≈ 0.0498 µM) in the experiment with S. aureus ATCC 29213 (setting [14]); 0.5 µg/mL (≈ 0.415 µM) in experiment [4] (setting [10]); 0.015 µg/mL (≈ 0.0124 µM) with S. pyogenes ATCC 19615 (setting [15]). Also, the MIC in the experiment with S. pneumoniae ATCC6303 (setting [16]) came out at 0.015 µg/mL (≈ 0.0124 µM). Moreover, in [5], the “antibacterial activity compared with example 2 ((S)-configuration)” value was “more active”.
